Measured values as given in publication PMC6195846 (Molecular microbiology, 2018).

Legend:
RsBluE [1] = biological target: T1, RsBluE (Cereibacter sphaeroides, UniProt Q3IZR9); experiment: ADP-Glo ATPase assay; format: biochemical; settings: ATPase inhibition by product; ADP 20 mM; sarkosyl-solubilized enzyme; 25 C
RsBluE [2] = biological target: T1, RsBluE; experiment: ADP-Glo ATPase assay; format: biochemical; settings: ATPase inhibition; sodium pyrophosphate 10 mM; sarkosyl-solubilized enzyme; 25 C

SMILES | % decrease in activity at 20 mM (RsBluE [1]) | % decrease in activity at 10 mM (RsBluE [2])
Nc1ncnc2c1ncn2[C@@H]1O[C@H](COP(=O)(O)OP(=O)(O)O)[C@@H](O)[C@H]1O [ADP] | 52% | 
O=P(O)(O)OP(=O)(O)O [PPi] |  | 12%
